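Method: 48-hour compound exposure of cells in 96-well plates, five concentrations, linear interpolation of endpoints. At the GI50, growth is halved. TGI denotes the concentration required for complete inhibition of growth.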
Tests used:
Experiment in all cases: DTP human tumour cell line panel, 48 h
[1] = test system: SF-268 CNS
[2] = test system: HOP-62 NSCLC
[3] = test system: SNB-75 CNS
[4] = test system: NCI-H522 lung
[5] = test system: NCI-H226 lung
[6] = test system: SNB-19 CNS
[7] = test system: M14 melanoma
[8] = test system: SF-295 CNS
[9] = test system: HOP-92 NSCLC
[10] = test system: EKVX NSCLC

Structure (SMILES): O=C1c2ccccc2C(=O)N1C/C=C/CO
- TGI [1]: > 100 µM
- TGI [2]: > 100 µM
- TGI [3]: > 100 µM
- TGI [4]: > 100 µM
- TGI [5]: > 100 µM
- TGI [6]: > 100 µM
- TGI [7]: > 100 µM

Structure (SMILES): O=C(CCC(C(=O)c1ccccc1)c1ccccc1)c1ccccc1 (centres undefined)
- GI50 [1]: 35.6 µM
- TGI [1]: > 100 µM
- GI50 [8]: 6.83 µM
- TGI [8]: > 100 µM
- GI50 [2]: 25.5 µM
- TGI [2]: > 100 µM
- GI50 [3]: 27.2 µM
- TGI [3]: > 100 µM
- GI50 [4]: 2.64 µM
- TGI [4]: 8.98 µM
- GI50 [6]: 73.8 µM
- TGI [6]: > 100 µM
- GI50 [9]: 3.4 µM
- TGI [9]: 72.2 µM
- GI50 [7]: 6.82 µM
- TGI [7]: > 100 µM

Structure (SMILES): CSc1ncnc2c1ncn2C1OC(CO)C(O)OC1O (centres undefined)
- TGI [1]: > 100 µM
- TGI [8]: > 71.3 µM
- TGI [10]: > 66.3 µM
- TGI [2]: 35.4 µM
- TGI [3]: 31.8 µM
- TGI [4]: > 100 µM
- TGI [6]: 51.5 µM
- TGI [9]: 22.7 µM
- TGI [7]: 39.1 µM

Structure (SMILES): C=C1C(=O)O[C@@H]2C1C[C@@H](O)C(=C)CC/C=C(\C)CCC[C@H](C)[C@H]2OC(C)=O (some centres undefined)
- GI50 [1]: 11 µM
- TGI [1]: 30.5 µM
- GI50 [8]: 17.1 µM
- TGI [8]: 31.9 µM
- GI50 [10]: 12 µM
- TGI [10]: 25.6 µM
- GI50 [2]: 15.4 µM
- TGI [2]: 30.7 µM
- GI50 [3]: 13.9 µM
- TGI [3]: 33.6 µM
- GI50 [4]: 3.55 µM
- TGI [4]: 12.7 µM
- GI50 [5]: 3.37 µM
- TGI [5]: 12.8 µM
- GI50 [6]: 27.1 µM
- TGI [6]: > 100 µM
- GI50 [9]: 1.09 µM
- TGI [9]: 3.76 µM

Structure (SMILES): O=C(NC1C2CC3CC(C2)CC1C3)c1cc(/C=C/c2ccccc2)[nH]c(=S)n1 (centres undefined)
- TGI [1]: > 100 µM
- TGI [8]: > 100 µM
- TGI [10]: > 100 µM
- TGI [2]: > 100 µM
- TGI [3]: > 100 µM
- TGI [4]: > 100 µM
- TGI [6]: > 100 µM
- TGI [7]: > 100 µM

Structure (SMILES): N#CCC(=O)N/N=C(\C(=O)Nc1ccc(Cl)c(Cl)c1)C1CN(c2ccccc2)N=C1N (centres undefined)
- TGI [1]: > 100 µM
- TGI [8]: > 100 µM
- TGI [10]: > 100 µM
- TGI [2]: > 100 µM
- TGI [3]: > 100 µM
- TGI [4]: > 100 µM
- TGI [5]: > 100 µM
- TGI [9]: > 100 µM
- TGI [7]: > 100 µM

Structure (SMILES): COc1cccc2c1c(C1=C(c3cn(C)c4ccccc34)C(=O)NC1=O)cn2C
- GI50 [1]: > 25 µM
- TGI [1]: > 25 µM
- GI50 [8]: > 25 µM
- TGI [8]: > 25 µM
- GI50 [2]: > 25 µM
- TGI [2]: > 25 µM
- GI50 [3]: > 25 µM
- TGI [3]: > 25 µM
- GI50 [4]: > 25 µM
- TGI [4]: > 25 µM
- GI50 [5]: > 25 µM
- TGI [5]: > 25 µM
- GI50 [6]: > 25 µM
- TGI [6]: > 25 µM
- GI50 [7]: > 25 µM
- TGI [7]: > 25 µM

Structure (SMILES): CSCCOC(=O)C(=[N+]=[N-])c1ccc([N+](=O)[O-])cc1
- TGI [1]: > 100 µM
- TGI [8]: > 100 µM
- TGI [10]: > 100 µM
- TGI [2]: > 100 µM
- TGI [3]: > 100 µM
- TGI [4]: > 100 µM
- TGI [5]: > 100 µM
- TGI [6]: > 100 µM
- TGI [7]: > 100 µM

Structure (SMILES): Clc1cc2n[se]nc2cc1Cl
- TGI [1]: > 100 µM
- TGI [8]: > 100 µM
- TGI [10]: > 100 µM
- TGI [2]: > 100 µM
- TGI [3]: > 100 µM
- TGI [6]: > 100 µM
- TGI [7]: > 100 µM

Structure (SMILES): Cc1ncsc1-c1ccc(CNC(=O)[C@@H]2C[C@@H](O)CN2C(=O)[C@@H](NC(=O)C2(C#N)CC2)C(C)(C)C)cc1
- GI50 [1]: > 100 µM
- TGI [1]: > 100 µM
- GI50 [8]: > 100 µM
- TGI [8]: > 100 µM
- GI50 [10]: 35.2 µM
- TGI [10]: > 100 µM
- GI50 [2]: > 100 µM
- TGI [2]: > 100 µM
- GI50 [3]: 33.7 µM
- TGI [3]: > 100 µM
- GI50 [4]: > 100 µM
- TGI [4]: > 100 µM
- GI50 [5]: > 100 µM
- TGI [5]: > 100 µM
- GI50 [6]: > 100 µM
- TGI [6]: > 100 µM
- GI50 [9]: 70.4 µM
- TGI [9]: > 100 µM

Structure (SMILES): O=C(NO)c1ccc(Cn2c(=O)n(-c3ccccc3F)c(=O)c3ccccc32)cc1
- GI50 [1]: 1.74 µM
- TGI [1]: 4.01 µM
- GI50 [8]: 1.66 µM
- TGI [8]: 3.29 µM
- GI50 [3]: 1.45 µM
- TGI [3]: 4.78 µM
- GI50 [4]: 0.542 µM
- TGI [4]: 2.05 µM
- GI50 [5]: 1.43 µM
- TGI [5]: 3.27 µM
- GI50 [6]: 2.54 µM
- TGI [6]: 18.2 µM
- GI50 [9]: 1.77 µM
- TGI [9]: 4.75 µM
- GI50 [7]: 1.53 µM
- TGI [7]: 3.05 µM

Structure (SMILES): N#CC1=C(N)NC(=S)NC12Nc1ccccc1N2
- GI50 [1]: 18.6 µM
- TGI [1]: > 100 µM
- GI50 [8]: 33.1 µM
- TGI [8]: > 100 µM
- GI50 [10]: 65.6 µM
- TGI [10]: > 100 µM
- GI50 [2]: 55.5 µM
- TGI [2]: > 100 µM
- GI50 [4]: 20.8 µM
- TGI [4]: 80 µM
- GI50 [5]: 20.6 µM
- TGI [5]: 88.2 µM
- GI50 [6]: 90.1 µM
- TGI [6]: > 100 µM
- GI50 [7]: 40 µM
- TGI [7]: > 100 µM

Structure (SMILES): COc1cc2c(cc1OC)C(=O)Cc1ccc(OC)c(OC)c1CN(C)CC2
- TGI [1]: > 100 µM
- TGI [10]: > 100 µM
- TGI [2]: > 100 µM
- TGI [3]: > 100 µM
- TGI [4]: > 100 µM
- TGI [5]: > 100 µM
- TGI [6]: > 100 µM
- TGI [9]: 98.5 µM
- TGI [7]: > 100 µM

Structure (SMILES): COC(=O)c1ccc(Cl)cc1NC(=O)C1CCCCC1
- TGI [1]: > 100 µM
- TGI [8]: > 100 µM
- TGI [10]: > 100 µM
- TGI [4]: > 100 µM
- TGI [5]: > 100 µM
- TGI [6]: > 100 µM
- TGI [9]: > 100 µM

Structure (SMILES): O=C1CC(O)(c2ccccc2)C(c2ccccc2)=C1c1ccccc1 (centres undefined)
- TGI [1]: > 100 µM
- TGI [8]: > 100 µM
- TGI [10]: > 100 µM
- TGI [2]: > 100 µM
- TGI [3]: 96.7 µM
- TGI [4]: 54.1 µM
- TGI [9]: 61.3 µM
- TGI [7]: > 100 µM

Structure (SMILES): O=C1OC(c2ccccc2)(c2cc(Br)c(O)c(Br)c2)c2ccccc21 (centres undefined)
- GI50 [1]: 28.8 µM
- TGI [1]: > 100 µM
- GI50 [8]: 17.5 µM
- TGI [8]: 59.1 µM
- GI50 [10]: 31.7 µM
- TGI [10]: > 100 µM
- GI50 [2]: 17.9 µM
- TGI [2]: 43.5 µM
- GI50 [3]: 20.3 µM
- TGI [3]: 72 µM
- GI50 [5]: 26.2 µM
- TGI [5]: 84.4 µM
- GI50 [6]: 29.7 µM
- TGI [6]: > 100 µM
- GI50 [9]: 16.6 µM
- TGI [9]: 40.5 µM
- GI50 [7]: 18.6 µM
- TGI [7]: 36.8 µM

Structure (SMILES): COc1ccc2oc(C(=O)O)c3c2c1CCC3
- TGI [8]: > 100 µM
- TGI [10]: > 100 µM
- TGI [2]: > 100 µM
- TGI [3]: > 100 µM
- TGI [6]: > 100 µM
- TGI [9]: > 100 µM
- TGI [7]: > 100 µM

Structure (SMILES): C=CN(C)S(C)(=O)=O
- GI50 [1]: > 100 µM
- TGI [1]: > 100 µM
- GI50 [8]: > 100 µM
- TGI [8]: > 100 µM
- GI50 [2]: > 100 µM
- TGI [2]: > 100 µM
- GI50 [3]: > 100 µM
- TGI [3]: > 100 µM
- GI50 [4]: > 100 µM
- TGI [4]: > 100 µM
- GI50 [5]: > 100 µM
- TGI [5]: > 100 µM
- GI50 [6]: > 100 µM
- TGI [6]: > 100 µM
- GI50 [9]: > 100 µM
- TGI [9]: > 100 µM
- GI50 [7]: > 100 µM
- TGI [7]: > 100 µM

Structure (SMILES): COc1ccc(OC(C(=O)O)c2ccccc2)c2c1CCCC2=O (centres undefined)
- TGI [1]: > 100 µM
- TGI [8]: > 100 µM
- TGI [10]: > 100 µM
- TGI [2]: > 100 µM
- TGI [4]: > 100 µM
- TGI [6]: > 100 µM
- TGI [9]: > 100 µM
- TGI [7]: > 100 µM

Reference: PubChem BioAssay (NCI)
